# Patent US10703733B2, “MCL-1 inhibitors” (Gilead Sciences, Inc., priority 2018, dated 2020)
# Where two headings read alike, the source gives them in different places.
# Key:
# [1] = test system: SKBR3 cells; experiment: SKBR3 Cell Viability Assay (CellTiter Glo); assay type: cell-based; conditions: CellTiter Glo luminescence, read-out: MCL-1 CV SKBR3 EC50
# In short: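 SKBR3 cells (6,000/well) in McCoy 5A + 10% FBS exposed to serially diluted compound for 72 h at 37° C., 5% CO2. Viability by CellTiter Glo luminescence; % inhibition normalized to DMSO (negative) and 10 μM puromycin (positive).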
# [2] = target: MCL-1/Bim interaction (recombinant human MCL-1 protein, residues 171-327; biotinylated human Bim peptide, residues 51-76) (Homo sapiens (Human), UniProt Q07820); experiment: MCL-1/Bim Binding AlphaLISA Assay; conditions: 0.0625 nM 6xHis-Mcl-1 (171-327), 0.0625 nM biotinylated-Bim peptide
# Sequence of MCL-1/Bim interaction (recombinant human MCL-1 protein, residues 171-327; biotinylated human Bim peptide, residues 51-76) (Q07820 171-327): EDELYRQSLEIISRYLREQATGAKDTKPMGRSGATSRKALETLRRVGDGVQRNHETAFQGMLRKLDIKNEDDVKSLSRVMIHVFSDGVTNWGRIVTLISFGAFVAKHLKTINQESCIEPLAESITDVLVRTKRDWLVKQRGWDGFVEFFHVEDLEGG
# In short: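 AlphaLISA with 0.0625 nM His-tagged MCL-1 and 0.0625 nM biotin-Bim peptide in 20 mM Hepes pH 7.5, 150 mM NaCl, 0.002% Brij 35, 1 mM DTT, 0.01% BSA. Compound preincubated 1 h with MCL-1, Bim added for 2 h, then acceptor and donor beads 1 h each.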
SMILES,"EC50 ([1]; Homo sapiens, SK-BR-3, 72 h)",IC50 [2],EC50 ([1]; 72 hours)
COC1CC2(C1)CN(C(=O)N[S@@]1(=O)=NC(=O)c3ccc4c(c3)N(C[C@@H]3CC[C@H]3[C@@H](OC)/C=C/C[C@H](C)C1)C[C@@]1(CCCc3cc(Cl)ccc31)CO4)C2 [Example 257],89.7 nM,0.083 nM,
COc1nn(C)cc1C(=O)N[S@@]1(=O)=NC(=O)c2ccc3c(c2)N(C[C@@H]2CC[C@H]2[C@@H](OC)/C=C/[C@H](OC(F)F)[C@H](C)C1)C[C@@]1(CCCc2cc(Cl)ccc21)CO3 [Example 400],530 nM,0.058 nM,
"CO[C@H]1/C=C/C[C@H](C)C[S@@](=O)(NC(=O)[C@H]2CCc3cnn(C)c3C2)=NC(=O)c2ccc3c(c2)N(C[C@@H]2CC[C@H]21)C[C@@]1(CCCc2cc(Cl)ccc21)CO3 (single isomer, unassigned) [Example 141]",65.3 nM,0.086 nM,
"CO[C@H]1/C=C/C[C@H](C)C[S@@](=O)(NC(=O)NC2CC2CC(F)F)=NC(=O)c2ccc3c(c2)N(C[C@@H]2CC[C@H]21)C[C@@]1(CCCc2cc(Cl)ccc21)CO3 (single isomer, unassigned) [Example 282]",,0.086 nM,28.7 nM
CO[C@H]1/C=C/C[C@H](C)C[S@@](=O)(NC(=O)N2CC(OC)(c3nccn3C)C2)=NC(=O)c2ccc3c(c2)N(C[C@@H]2CC[C@H]21)C[C@@]1(CCCc2cc(Cl)ccc21)CO3 [Example 276],64.3 nM,0.068 nM,
CO[C@H]1/C=C/C[C@H](C)C[S@@](=O)(NC(=O)N2CC3(C2)CC3(F)F)=NC(=O)c2ccc3c(c2)N(C[C@@H]2CC[C@H]21)C[C@@]1(CCCc2cc(Cl)ccc21)CO3 [Example 324],37.9 nM,0.058 nM,
CO[C@H]1/C=C/C[C@H](C)C[S@@](=O)(NC(=O)C2CC(O)(C(F)(F)F)C2)=NC(=O)c2ccc3c(c2)N(C[C@@H]2CC[C@H]21)C[C@@]1(CCCc2cc(Cl)ccc21)CO3 (stereo partly drawn) [Example 198],104 nM,0.043 nM,
COc1nn(C)cc1C(=O)N[S@@]1(=O)=NC(=O)c2ccc3c(c2)N(C[C@@H]2CC[C@H]2[C@@H](OC)/C=C\C[C@H](C)C1)C[C@@]1(CCCc2cc(Cl)ccc21)CO3 [Example 228],69.9 nM,0.069 nM,
"CCC(=O)NS1(=O)=NC(=O)c2ccc3c(c2)N(C[C@@H]2CC[C@H]2[C@@H](OC)/C=C/CC[C@H]1CC)C[C@@]1(CCCc2cc(Cl)ccc21)CO3 (single isomer, unassigned) [Example 65]",,1.8 nM,1970 nM
COc1nc(OC)c(C(=O)N[S@@]2(=O)=NC(=O)c3ccc4c(c3)N(C[C@@H]3CC[C@H]3[C@@H](OC)/C=C/C[C@H](C)C2)C[C@@]2(CCCc3cc(Cl)ccc32)CO4)c(OC)n1 [Example 459],194 nM,0.085 nM,
CO[C@H]1/C=C/C[C@H](C)C[S@@](=O)(NC(=O)c2cc3n(c2)CCCC3)=NC(=O)c2ccc3c(c2)N(C[C@@H]2CC[C@H]21)C[C@@]1(CCCc2cc(Cl)ccc21)CO3 [Example 415],105 nM,0.526 nM,
CO[C@H]1/C=C/C[C@H](C)C[S@@](=O)(NC(=O)c2cc3n(c2)CCN(C(C)=O)C3)=NC(=O)c2ccc3c(c2)N(C[C@@H]2CC[C@H]21)C[C@@]1(CCCc2cc(Cl)ccc21)CO3 [Example 180],134 nM,0.092 nM,
CO[C@H]1/C=C/CCC[S@@](=O)(NC(=O)CCc2nccs2)=NC(=O)c2ccc3c(c2)N(C[C@@H]2CC[C@H]21)C[C@@]1(CCCc2cc(Cl)ccc21)CO3 [Example 91],616 nM,0.1 nM,
COC1CCN(C(=O)N[S@@]2(=O)=NC(=O)c3ccc4c(c3)N(C[C@@H]3CC[C@H]3[C@@H](OC)/C=C/C[C@H](C)C2)C[C@@]2(CCCc3cc(Cl)ccc32)CO4)CC1 [Example 320],36.6 nM,0.035 nM,
COCCOC1CN(C(=O)N[S@@]2(=O)=NC(=O)c3ccc4c(c3)N(C[C@@H]3CC[C@H]3[C@@H](OC)/C=C/C[C@H](C)C2)C[C@@]2(CCCc3cc(Cl)ccc32)CO4)C1 [Example 251],39.6 nM,0.037 nM,
CO[C@H]1/C=C/C[C@H](C)C[S@@](=O)(NC(=O)[C@H]2C[C@@H](C(C)(C)O)C2)=NC(=O)c2ccc3c(c2)N(C[C@@H]2CC[C@H]21)C[C@@]1(CCCc2cc(Cl)ccc21)CO3 [Example 178],144 nM,0.141 nM,
CO[C@H]1/C=C/C[C@H](C)C[S@@](=O)(NC(=O)C2CC(C)(OC)C2)=NC(=O)c2ccc3c(c2)N(C[C@@H]2CC[C@H]21)C[C@@]1(CCCc2cc(Cl)ccc21)CO3 (stereo partly drawn) [Example 169],61 nM,0.048 nM,

SMILES,"EC50 ([1]; Homo sapiens, SK-BR-3, 72 h)",IC50 [2],EC50 ([1]; 72 hours)
CO[C@H]1/C=C/CCC[S@](N)(=O)=NC(=O)c2ccc3c(c2)N(C[C@@H]2CC[C@H]21)C[C@@]1(CCCc2cc(Cl)ccc21)CO3 [Example 6],,27.3 nM,8730 nM
CO[C@H]1/C=C/C[C@H](C)C[S@@](=O)(NC(=O)N2CC(n3ccnc3)C2)=NC(=O)c2ccc3c(c2)N(C[C@@H]2CC[C@H]21)C[C@@]1(CCCc2cc(Cl)ccc21)CO3 [Example 348],84.7 nM,0.041 nM,
CO[C@H]1/C=C/C[C@H](C)C[S@@](=O)(NC(=O)c2cc3n(c2)CCC3)=NC(=O)c2ccc3c(c2)N(C[C@@H]2CC[C@H]21)C[C@@]1(CCCc2cc(Cl)ccc21)CO3 [Example 136],76.4 nM,0.183 nM,
CO[C@H]1/C=C/C[C@H](C)C[S@@](=O)(NC(=O)NC2CC2)=NC(=O)c2ccc3c(c2)N(C[C@@H]2CC[C@H]21)C[C@@]1(CCCc2cc(Cl)ccc21)CO3 [Example 144],50.8 nM,0.05 nM,
CCC(=O)N[S@@]1(=O)=NC(=O)c2ccc3c(c2)N(C[C@@H]2CC[C@H]2[C@@H](OC)/C=C/C[C@H](C)[C@H]1C)C[C@@]1(CCCc2cc(Cl)ccc21)CO3 [Example 2],792 nM,1.5 nM,
"CO[C@H]1/C=C/C[C@H](C)C[S@@](=O)(NC(=O)N[C@@H]2CC23CCOC3)=NC(=O)c2ccc3c(c2)N(C[C@@H]2CC[C@H]21)C[C@@]1(CCCc2cc(Cl)ccc21)CO3 (single isomer, unassigned) [Example 342]",33.6 nM,0.029 nM,
CO[C@H]1/C=C/C[C@H](C)C[S@@](=O)(NC(=O)N2CC(C)(OC)C2)=NC(=O)c2ccc3c(c2)N(C[C@@H]2CC[C@H]21)C[C@@]1(CCCc2cc(Cl)ccc21)CO3 [Example 363],46.5 nM,0.042 nM,
"COCC(=O)NS1(=O)=NC(=O)c2ccc3c(c2)N(C[C@@H]2CC[C@H]2[C@@H](OC)/C=C/CCC1)C[C@@]1(CCCc2cc(Cl)ccc21)CO3 (single isomer, unassigned) [Example 7]",,1.2 nM,4800 nM
CO[C@H]1/C=C/C[C@H](C)C[S@@](=O)(NC(=O)N2CC3(CCOC3)C2)=NC(=O)c2ccc3c(c2)N(C[C@@H]2CC[C@H]21)C[C@@]1(CCCc2cc(Cl)ccc21)CO3 [Example 456],174 nM,0.099 nM,
COc1nc(N2CCOCC2)ncc1C(=O)N[S@@]1(=O)=NC(=O)c2ccc3c(c2)N(C[C@@H]2CC[C@H]2[C@@H](OC)/C=C/C[C@H](C)C1)C[C@@]1(CCCc2cc(Cl)ccc21)CO3 [Example 462],345 nM,0.251 nM,
CO[C@H]1/C=C/C[C@H](C)C[S@@](=O)(NC(=O)N[C@@H]2C[C@H]2c2ccnn2C)=NC(=O)c2ccc3c(c2)N(C[C@@H]2CC[C@H]21)C[C@@]1(CCCc2cc(Cl)ccc21)CO3 [Example 182],136 nM,0.144 nM,
CO[C@H]1/C=C/CCC[S@@](=O)(NC(=O)CCn2cccn2)=NC(=O)c2ccc3c(c2)N(C[C@@H]2CC[C@H]21)C[C@@]1(CCCc2cc(Cl)ccc21)CO3 [Example 39],262 nM,0.1 nM,
CO[C@H]1/C=C/CCC[S@@](=O)(NC(=O)CCc2ncccn2)=NC(=O)c2ccc3c(c2)N(C[C@@H]2CC[C@H]21)C[C@@]1(CCCc2cc(Cl)ccc21)CO3 [Example 44],376 nM,0.1 nM,
COC(=O)c1ccn2c1CN(C(=O)N[S@@]1(=O)=NC(=O)c3ccc4c(c3)N(C[C@@H]3CC[C@H]3[C@@H](OC)/C=C/C[C@H](C)C1)C[C@@]1(CCCc3cc(Cl)ccc31)CO4)CC2 [Example 383],1200 nM,0.659 nM,
COc1nn(C2CC2)cc1C(=O)N[S@@]1(=O)=NC(=O)c2ccc3c(c2)N(C[C@@H]2CC[C@H]2[C@@H](OC)/C=C/C[C@H](C)C1)C[C@@]1(CCCc2cc(Cl)ccc21)CO3 [Example 262],85.8 nM,0.056 nM,
CO[C@H]1/C=C/CCC[S@@](=O)(NC(=O)COc2ccccc2)=NC(=O)c2ccc3c(c2)N(C[C@@H]2CC[C@H]21)C[C@@]1(CCCc2cc(Cl)ccc21)CO3 [Example 96],604 nM,0.4 nM,
